We go through two compounds from US20080153700A1, “Fungicidal Mixtures” (Basf Aktiengesellschaft, priority 2004, published 2008).

In the assay the test system is Plasmopara viticola. The assay is described as follows: activity against peronospora of grapevines caused by Plasmopara viticola (protective spray on potted vines). The format is in vivo, Plasmopara viticola on vines of the cultivar "Riesling". Conditions: individual active compound, untreated control 88% infection. As to the method:
The active compounds, separately or jointly, were prepared as a stock solution comprising 0.25% by weight of active compound in acetone or DMSO. 1% by weight of the emulsifier Uniperol® EL (wetting agent having emulsifying and dispersant action based on ethoxylated alkylphenols) was added to this solution, and the mixture was diluted with water to the desired concentration.
Use example—activity against peronospora of grapevines caused by Plasmopara viticola
Leaves of potted vines of the cultivar “Riesling” were sprayed to runoff point with an aqueous suspension having the concentration of active compound stated below. The next day, the undersides of the leaves were inoculated with an aqueous zoospore suspension of Plasmopara viticola. The grapevines were then initially placed in a water-vapor-saturated chamber at 24° C. for 48 hours and then in a greenhouse at 20-30° C. for 5 days. After this period of time, the plants were again placed in a humid chamber for 16 hours to promote sporangiophore eruption. The extent of the development of the disease on the undersides of the leaves was then determined visually.
The visually determined percentages of infected leaf areas were converted into efficacies in % of the untreated control:
The efficacy (E) is calculated as follows using Abbot's formula: […]
α corresponds to the fungicidal infection of the treated plants in % and β corresponds to the fungicidal infection of the untreated (control) plants in %
An efficacy of 0 means that the infection level of the treated plants corresponds to that of the untreated control plants; an efficacy of 100 means that the treated plants were not infected.
The expected efficacies of mixtures of active compounds were determined using Colby's formula (Colby, S. R. “Calculating synergistic and antagonistic responses of herbicide combinations”, Weeds, 15, 20-22, 1967) and compared with the observed efficacies.
E expected efficacy, expressed in % of the untreated control, when using the mixture of the active compounds A and B at the concentrations a and b x efficacy, expressed in % of the untreated control, when using the active compound A at the concentration a y efficacy, expressed in % of the untreated control, when using the active compound B at the concentration b

In the case of `CC1CCN(c2c(-c3c(F)cc(F)cc3F)c(Cl)nc3ncnn23)CC1` [compound I, 5-chloro-7-(4-methylpiperidin-1-yl)-6-(2,4,6-trifluorophenyl)[1,2,4]triazolo[1,5-a]pyrimidine], the “Efficacy in % of the untreated control” value reads like this: (16 ppm in the spray liquor) 55%; (63 ppm in the spray liquor) 66%.

For the compound `Cc1ccc(N(SC(F)(Cl)Cl)S(=O)(=O)N(C)C)cc1` [compound II, N-dichlorofluoromethylthio-N′,N′-dimethyl-N-p-tolylsulfamide], the “Efficacy in % of the untreated control” value is given as 0% (16 ppm in the spray liquor) and 21% (63 ppm in the spray liquor).
